Data from US20160128944A1, “COATED PARTICLES AND COMPOSITIONS COMPRISING SAME” (VYOME BIOSCIENCES PVT. LTD., priority 2013, published 2016).
Like-named read-outs stand apart in the source and are kept apart here.

Tested on: M. furfur
Description: The time-kill assays are used to evaluate efficacy of antimicrobial agents, either singly or in combination, and the results can help in establishing the dose and/or time of application of the active. The time-kill assays can be used to study both concentration-dependent and time-dependent antimicrobial action.
Method: M. furfur cells were suspended in Sabouraud Dextrose Broth (SDB) at inoculum concentration of 7×10^7 cells/ml. Cells were taken from a freshly growing (3-7 days old) plate and cell suspension is vortexed to remove the cell clumps as much as possible. Sterile media were supplemented with chloramphenicol (0.25 mg/ml), cycloheximide (0.04 mg/ml) and olive oil (2%). The media were then supplemented with appropriate concentrations (two-fold serial dilutions using SDB) of zinc pyrithione powder (10 μg/ml and 50 μg/ml) with different concentrations of Capmul 908-P […]. The cultures were incubated on a tube rotator at 34° C. in CO2 incubator.
To measure the colony forming units (CFU), at different time points, aliquots (50 μl) of Malassezia cultures were serially diluted with SDBT medium (SDB containing 0.1% Triton X-100) and plated on SDA plates. The plates were incubated at 34° C. in CO2 incubator for 3 days. The viable colonies were counted and converted to CFU/ml.

Q: With zinc pyrithione [ZPT] as the substance, how does the “Log CFU Count of M. furfur” value (ZPT 10 μg/ml, Capmul 908-P 30 μg/ml, 6 hrs) read?
A: 6.50 Log CFU

Q: What about the “Log CFU Count of M. furfur” value (ZPT 10 μg/ml, Capmul 908-P 30 μg/ml, 24 hrs) of the same substance?
A: 5.94 Log CFU

Q: And the “Log CFU Count of M. furfur” value (ZPT 10 μg/ml, Capmul 908-P 30 μg/ml, 48 hrs)?
A: 5.06 Log CFU

Q: What about the “Log CFU Count of M. furfur” value (ZPT 10 μg/ml, Capmul 908-P 50 μg/ml, 6 hrs) of the same substance?
A: 6.37 Log CFU

Q: What about the “Log CFU Count of M. furfur” value (ZPT 10 μg/ml, Capmul 908-P 50 μg/ml, 24 hrs) of the same substance?
A: 5.57 Log CFU

Q: And the “Log CFU Count of M. furfur” value (ZPT 10 μg/ml, Capmul 908-P 50 μg/ml, 48 hrs)?
A: 4.80 Log CFU

Q: And the “Log CFU Count of M. furfur” value (ZPT 10 μg/ml, Capmul 908-P 90 μg/ml, 6 hrs)?
A: 6.33 Log CFU

Q: What about the “Log CFU Count of M. furfur” value (ZPT 10 μg/ml, Capmul 908-P 90 μg/ml, 24 hrs) of the same substance?
A: 5.55 Log CFU

Q: What about the “Log CFU Count of M. furfur” value (ZPT 10 μg/ml, Capmul 908-P 90 μg/ml, 48 hrs) of the same substance?
A: 4.77 Log CFU

Q: What about the “Log CFU Count of M. furfur” value (ZPT 10 μg/ml, Capmul 908-P nil, 6 hrs) of the same substance?
A: 6.56 Log CFU

Q: And the “Log CFU Count of M. furfur” value (ZPT 10 μg/ml, Capmul 908-P nil, 24 hrs)?
A: 6.13 Log CFU

Q: What about the “Log CFU Count of M. furfur” value (ZPT 10 μg/ml, Capmul 908-P nil, 48 hrs) of the same substance?
A: 5.27 Log CFU

Q: And the “Log CFU Count of M. furfur” value (ZPT 50 μg/ml, Capmul 908-P 30 μg/ml, 6 h)?
A: 6.06 Log CFU

Q: And the “Log CFU Count of M. furfur” value (ZPT 50 μg/ml, Capmul 908-P 30 μg/ml, 24 h)?
A: 4.69 Log CFU

Q: And the “Log CFU Count of M. furfur” value (ZPT 50 μg/ml, Capmul 908-P 30 μg/ml, 48 h)?
A: 3.25 Log CFU

Q: What about the “Log CFU Count of M. furfur” value (ZPT 50 μg/ml, Capmul 908-P 50 μg/ml, 6 h) of the same substance?
A: 5.94 Log CFU

Q: And the “Log CFU Count of M. furfur” value (ZPT 50 μg/ml, Capmul 908-P 50 μg/ml, 24 h)?
A: 4.62 Log CFU

Q: What about the “Log CFU Count of M. furfur” value (ZPT 50 μg/ml, Capmul 908-P 50 μg/ml, 48 h) of the same substance?
A: 3.04 Log CFU

Q: And the “Log CFU Count of M. furfur” value (ZPT 50 μg/ml, Capmul 908-P 90 μg/ml, 6 h)?
A: 5.52 Log CFU

Q: And the “Log CFU Count of M. furfur” value (ZPT 50 μg/ml, Capmul 908-P 90 μg/ml, 24 h)?
A: 3.63 Log CFU

Q: And the “Log CFU Count of M. furfur” value (ZPT 50 μg/ml, Capmul 908-P 90 μg/ml, 48 h)?
A: 2.08 Log CFU

Q: What about the “Log CFU Count of M. furfur” value (ZPT 50 μg/ml, Capmul 908-P nil, 6 h) of the same substance?
A: 6.43 Log CFU

Q: What about the “Log CFU Count of M. furfur” value (ZPT 50 μg/ml, Capmul 908-P nil, 24 h) of the same substance?
A: 5.39 Log CFU

Q: What about the “Log CFU Count of M. furfur” value (ZPT 50 μg/ml, Capmul 908-P nil, 48 h) of the same substance?
A: 3.92 Log CFU

Q: And the “anti-microbial activity towards M. furfur in combination with propylene glycol monocaprylate” value (time-kill, ZPT 10 and 50 μg/ml with Capmul 908-P)?
A: potentiated with increasing concentration of propylene glycol monocaprylate
